The text below walks through data of ChEMBL document CHEMBL5608234, “Heat Shock Protein 90 Interactome-Mediated Proteolysis Targeting Chimera (HIM-PROTAC) Degrading Glutathione Peroxidase 4 to Trigger Ferroptosis” (J Med Chem, 2024).

The subject of one data set is MDA-MB-231. Put plainly: HIM-PROTAC activity at GPX4/HSP90/E3 ligase in human MDA-MB-231 cells assessed as reduction in GPX4 level at 0.1 to 3 uM incubated for 24 hrs by Western blotting analysis. Type of data set: cell-based. The settings on record: dose 0.1-3 µM.
In data set [1] the test system is HT-1080. Put plainly: Upregulation of HMOX1 protein level in human HT-1080 cells at 1 uM incubated for 24 hrs by proteomics analysis. Format: functional, cell-based.
The subject of data set [2] is HT-1080. Put plainly: HIM-PROTAC activity at GPX4/HSP90/E3 ligase in human HT-1080 cells assessed as reduction in GPX4 level at 1 uM incubated for 12 hrs by Western blotting analysis. Format: cell-based. In general terms: In western blotting, separated proteins are transferred to a membrane and probed.
Data set [3] concerns HT-1080. The data set can be described thus: Induction of ferroptosis in human HT-1080 cells assessed as increase in lipid peroxidation by measuring fluorescence intensity at 1 uM incubated for 12 hrs in presence of Fer-1 by C11-BODIPSY 581/591 staining based flow cytometry analysis. Type of data set: functional, cell-based. (Flow cytometry measures light scatter and fluorescence of single cells or particles in a stream.)

The target of data set [4] is T1, Phospholipid hydroperoxide glutathione peroxidase GPX4 (Homo sapiens) (UniProt P36969).
T1 sequence (whole entry): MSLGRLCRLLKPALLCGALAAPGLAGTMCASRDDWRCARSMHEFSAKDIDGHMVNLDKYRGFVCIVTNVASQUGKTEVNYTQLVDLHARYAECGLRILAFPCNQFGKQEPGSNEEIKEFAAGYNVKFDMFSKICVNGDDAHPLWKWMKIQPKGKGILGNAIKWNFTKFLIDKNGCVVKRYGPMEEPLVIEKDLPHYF
Put plainly: Induction of GPX4 ubiquitination in human HT-1080 cells at 1 uM incubated for 12 hrs by SDS-PAGE assay. The note with it: filed as activator. Format: cell-based.

The nature of data set [5]: Toxicity in BALB/c mouse xenografted with human HT-1080 cells assessed as animal death at 50 mg/kg, ip administered once daily measured after 10 days. The note with it: in vivo, 240 h, time 10 day. Format: organism-based.
Data set [6] has as its system HT-1080. The data set can be described thus: Induction of ferroptosis in human HT-1080 cells assessed as ruptured mitochondria at 1 uM incubated for 24 hrs by TEM analysis. Type of data set: functional, cell-based.
Data set [7] deals with Mus musculus. The data set can be described thus: Downregulation of GPX4 protein level in BALB/c mouse tumor xenografted with human HT-1080 cells at 50 to 100 mg/kg, ip measured upto 36 hrs. The note with it: dose 50-100 mg/kg. Format: functional, organism-based. For orientation: A xenograft is tissue or cells of one species grown in another, often human tumour cells in immunodeficient mice.

The nature of data set [8]: Drug uptake in human HT-1080 cells at 5 uM incubated for 6 hrs by LC-MS analysis. Format: ADME, cell-based. The note with it: ht-1080, 6 h.
Data set [9] in a line: Half-life in ICR mouse at 25 mg/kg, ip measured upto 24 hrs by LC-MS/MS analysis. Format: ADME, organism-based. The settings on record: in vivo.
Data set [10] can be described thus: Drug uptake in human HT-1080 cells at 5 uM incubated for 18 hrs by LC-MS analysis. The note with it: ht-1080, 18 h. Type of data set: ADME, cell-based.
Data set [11] is described as follows: MRT(infinity) in ICR mouse at 25 mg/kg, ip measured upto 24 hrs by LC-MS/MS analysis. Format: ADME, organism-based. The note with it: in vivo.
The test system of data set [12] is HT-1080. Put plainly: Cytotoxicity against human HT-1080 cells incubated for 48 hrs in presence of Fer-1 by CCK-8 assay. Type of data set: functional, cell-based. The note with it: HT-1080, 48 h.
The nature of data set [13]: AUC(0 to t) in ICR mouse at 25 mg/kg, ip measured upto 24 hrs by LC-MS/MS analysis. Type of data set: ADME, organism-based. The settings on record: in vivo.
A short description of data set [14]: AUCinfinity in ICR mouse at 25 mg/kg, ip measured upto 24 hrs by LC-MS/MS analysis. Format: ADME, organism-based. The note with it: in vivo.
Data set [15] in a line: Toxicity in BALB/c mouse xenografted with human HT-1080 cells assessed as change in liver morphology at 25 to 50 mg/kg, ip administered once daily by H and E staining based assay. The note with it: in vivo, dose 25-50 mg/kg. Format: organism-based.
For data set [16], the system named is Mus musculus. Put plainly: Upregulation of 4-HNE level in ip dosed BALB/c mouse xenografted with human HT-1080 cells administered once daily by immunohistochemistry analysis. Format: functional, organism-based. The note with it: dose 25-50 mg/kg.
The subject of data set [17] is HT-1080. Put plainly: HIM-PROTAC activity at GPX4/HSP90/E3 ligase in human HT-1080 cells assessed as downregulation of GPX4 mRNA level at 1 uM incubated for 24 hrs by qRT-PCR analysis. Type of data set: cell-based.
Data set [18] concerns HT-1080. Put plainly: Upregulation of GPX4 protein level in human HT-1080 cells at 1 uM incubated for 4 hrs by Western blotting analysis. Format: functional, cell-based.
Data set [19] deals with HT-1080. The data set can be described thus: HIM-PROTAC activity at GPX4/HSP90/E3 ligase in LZTR1 knockdown human HT-1080 cells assessed as GPX4 degradation at 0.3 to 1 uM incubated for 24 hrs by Western blotting analysis. Format: cell-based. The settings on record: dose 0.3-1 µM.
The test system of data set [20] is HT-1080. The data set can be described thus: HIM-PROTAC activity at GPX4/HSP90/E3 ligase in CHIP knockdown human HT-1080 cells assessed as GPX4 degradation at 1 uM incubated for 24 hrs by Western blotting analysis. Type of data set: cell-based.
Data set [21] relates to HT-1080. Put plainly: HIM-PROTAC activity at GPX4/HSP90/E3 ligase in CUL5-knockdown human HT-1080 cells assessed as GPX4 degradation at 0.3 to 1 uM incubated for 24 hrs by Western blotting analysis. Format: cell-based. The note with it: dose 0.3-1 µM.
Data set [22] deals with HT-1080. The data set can be described thus: HIM-PROTAC activity at GPX4/HSP90/E3 ligase in human HT-1080 cells assessed as GPX4 degradation at 1 uM measured 12 hrs post compound washout by Western blotting analysis. Type of data set: cell-based.
In data set [23] the test system is HT-1080. Put plainly: HIM-PROTAC activity at GPX4/HSP90/E3 ligase in CUL1-knockdown human HT-1080 cells assessed as GPX4 degradation at 0.3 to 1 uM incubated for 24 hrs by Western blotting analysis. Type of data set: cell-based. The note with it: dose 0.3-1 µM.
In data set [24] the test system is HT-1080. The data set can be described thus: HIM-PROTAC activity at GPX4/HSP90/E3 ligase in human HT-1080 cells assessed as reduction in GPX4 level incubated for 24 hrs by Western blotting analysis. Type of data set: cell-based.
For data set [25], the system named is HT-1080. The data set can be described thus: HIM-PROTAC activity at GPX4/HSP90/E3 ligase in CUL2-knockdown human HT-1080 cells assessed as GPX4 degradation at 0.3 to 1 uM incubated for 24 hrs by Western blotting analysis. The settings on record: dose 0.3-1 µM. Format: cell-based.
Data set [26] has as its system HT-1080. Put plainly: HIM-PROTAC activity at GPX4/HSP90/E3 ligase in HSP90-knockdown human HT-1080 cells assessed as GPX4 degradation at 1 uM preincubated with KW-2478 for 3 hrs followed by compound addition and measured after 24 hrs by Western blotting analysis. Type of data set: cell-based.
The test system of data set [27] is HT-1080. Put plainly: HIM-PROTAC activity at GPX4/HSP90/E3 ligase in HSP90-knockdown human HT-1080 cells assessed as GPX4 degradation at 1 uM preincubated with KW-2478 and KUNB-31 for 3 hrs followed by compound addition and measured after 24 hrs by Western blotting analysis. Format: cell-based.
In data set [28] the test system is HT-1080. Put plainly: HIM-PROTAC activity at GPX4/HSP90/E3 ligase in CUL3-knockdown human HT-1080 cells assessed as GPX4 degradation at 0.3 to 1 uM incubated for 24 hrs by Western blotting analysis. Type of data set: cell-based. The note with it: dose 0.3-1 µM.
For data set [29], the system named is HT-1080. Put plainly: HIM-PROTAC activity at GPX4/HSP90/E3 ligase in human HT-1080 cells assessed as downregulation of GPX4 mRNA level at 0.1 to 1 uM incubated for 24 hrs by qRT-PCR analysis. Format: cell-based. The settings on record: dose 0.1-1 µM.

Activity calls are given as the source filed them.

As a reminder, the half-life is the time needed for the level to fall by half in the phase considered. Read a high half-life as slow decline. A word on the MRT inf: it is a mean duration of stay, worked out from the concentration-time curve. A word on the IC50: it is the midpoint of a concentration-inhibition curve. For orientation: AUC(0-t) means exposure summed from dosing to a finite time, without extrapolation to infinity. Read a low AUC(0-t) as less exposure. One may read the AUC(0-inf) as total exposure, with the tail of the curve extrapolated. Lower therefore signals less exposure. For `COc1c(C)cnc(Cn2cnc3c(NCCOCCOCCOCCn4cc(COc5ccc(N(C(=O)CCl)C(C(=O)NCCc6ccccc6)c6cccs6)cc5Cl)nn4)nc(N)nc32)c1C` (stereo unspecified), the result with MDA-MB-231 and with HT-1080 [3] was inactive. The result (in the data set with HT-1080 [1]; in the data set on HT-1080 [2]; in data set [4]; in the data set with HT-1080 [6]; with Mus musculus [7]; with HT-1080 [17]) was Active. In addition, the outcome in the data set on HT-1080 [18] was Active. For the same molecule, the Activity entry was “Non-Toxic” in data set [5], “Non-Toxic” in data set [15] and “Dose-Dependent Effect” with Mus musculus [16]. Also, the Drug uptake result in data set [8] is on record as “Active”; in [10] it was “Not Active”. In [9], the half-life is 5.5 h. The MRT inf in data set [11] came out at 8.2 h. In the data set with HT-1080 [12], the IC50 was determined as 4.4 µM. Moreover, the AUC(0-t) at 24 h in data set [13] is 726 ng·h/mL. Moreover, the AUC(0-inf) in data set [14] is 1030 ng·h/mL.

For the molecule `COc1c(C)cnc(Cn2cnc3c(NCCC4CCN(C(=O)Cn5cc(COc6ccc(N(C(=O)CCl)C(C(=O)NCCc7ccccc7)c7cccs7)cc6Cl)nn5)CC4)nc(N)nc32)c1C` (stereo unspecified), the result in the data set with MDA-MB-231, with HT-1080 [20], with HT-1080 [21], with HT-1080 [3], in the data set on HT-1080 [26] and with HT-1080 [27] was inactive. Also, in the data set with HT-1080 [29], the result was inactive. In addition, the outcome (with HT-1080 [19]; with HT-1080 [1]; with HT-1080 [2]; in the data set on HT-1080 [22]; with HT-1080 [23]; in data set [4]) was Active. In addition, the result in the data set with HT-1080 [6], in the data set on Mus musculus [7], with HT-1080 [25], in the data set on HT-1080 [28] and with HT-1080 [18] was Active. Moreover, the Activity entry in the data set with HT-1080 [24] is “Dose-Dependent Effect”; in data set [5], “Non-Toxic”; in data set [15], “Non-Toxic”; in the data set on Mus musculus [16] it was “Dose-Dependent Effect”. Besides, the half-life in data set [9] was 5 h. Also, the MRT inf in data set [11] came to 6.2 h. Further, in the data set on HT-1080 [12], the IC50 is 35.5 µM. In addition, in [13], the AUC(0-t) at 24 h worked out at 334 ng·h/mL. The molecule further yielded an AUC(0-inf) in data set [14] of 346 ng·h/mL.
